According to patent publication US10238714B2, “Method for forming an immune-tolerant site and method for attracting immunosuppressive cells” (KYOTO UNIVERSITY, priority 2015, dated 2019):

What was measured:
[1] = system: regulatory T cells (CD4+Foxp3+ cells); assay: Flow cytometry of immune cells from tissue where SEK-1005-containing agarose rod was embedded under the skin: regulatory T cells; assay type: in vivo, ACI rats; conditions: for ratio of Foxp3+ cells among CD4+ cells: STZ-diabetic ACI rats
Protocol: (§1) In a polystyrene tube with an inner diameter of 4 mm, 4.5% agarose solution was poured, and the tube was then left to stand at normal temperature to allow gelation of the agarose solution. The resulting agarose gel rod was removed from the polystyrene tube, and cut into a piece having a length of 25 mm. Subsequently, the agarose gel rod was stored in a freezer at −30° C. overnight to allow freezing of water. By freeze-drying the frozen agarose rod, a porous dry agarose rod was prepared. To the dry agarose rod, 50 μl of a solution of 2 mg/ml SEK-1005 in ethanol was added dropwise to include the SEK-1005 solution in the dry agarose rod. Ethanol was then evaporated by air drying.
(§2) On the day when the agarose rod was to be embedded, streptozotocin (STZ) (60 mg/kg body weight) was administered to ACI rats to induce diabetes. To each of the left side and the right side of the back of each ACI rat, the agarose rod having a length of 25 mm and a diameter of 4 mm containing 100 μg of SEK-1005 was embedded. On Day 10 after the embedding, the agarose rod was removed. In the vicinity of each place where the agarose rod had been embedded, formation of connective tissue containing a number of blood vessels was found. This tissue was minced with scissors, and then homogenized, followed by collecting cells from the tissue. The cells were subjected to purification by Percoll density gradient centrifugation to obtain immune cells, and the obtained immune cells were analyzed using a flow cytometer.
The ratio of Foxp3^+ cells among CD4^+ cells was 18.3% on Day 2, 20.8% on Day 7, 23.3% on Day 10, and 27.3% on Day 14 after the SEK-1005-containing agarose rod was embedded under the skin.

[2] = system: cytotoxic T cells (CD8+ T cells); assay: Flow cytometry of immune cells from tissue where SEK-1005-containing agarose rod was embedded under the skin: cytotoxic T cells; assay type: in vivo, ACI rats
Protocol: as §1
as §2, with “On Day 10 after the embedding, the agarose rod was removed.” left out
In normal subcutaneous tissues, the ratio is about 30%, and, when a foreign substance is embedded, the ratio increases to not less than 50% in most cases. The action of SEK-1005 suppressed such an increase.

[3] = system: TGF-β1; assay: TGF-β1 concentration in the exudate at the site of the SEK-1005-containing agarose rod; assay type: in vivo, ACI rats
Protocol: as §1, §2
The TGF-β1 concentration in the exudate was measured. The TGF-β1 concentration was 0.7±0.1 ng/ml until Day 7 after the SEK-1005-containing agarose rod was embedded. […] This was about 3 times the concentration in a treated group in which an SEK-1005-free agarose rod was embedded.

[4] = system: CD8+ T cells; assay: Treg suppression assay with CD4+CD25+ cells collected from tissue near the SEK-1005-containing agarose rod; assay type: cell-based, ACI rats; conditions: Group 2: CFSE-stained CD8+ T cells, 1 μg/mL anti-CD3 antibody plus 2.5×10^4 CD4+CD25+ cells from Day 10 rod tissue, Day 4.5; Group 1 without these cells 42.4%
Source text: On Day 10 after embedding of the SEK-1005-containing agarose rod by the same operation as in Example 1, the tissue in the vicinity of the place where the rod was embedded was collected, and then homogenized, followed by collecting cells from the tissue. The cells were subjected to purification by Percoll density gradient centrifugation to obtain immune cells, and CD4^+CD25^+ cells (a fraction containing a large number of tissue-infiltrating regulatory T cells) were collected using MACS magnetic beads.
CD8^+ T cells were separately prepared from ACI rats, and the cells were then stained with a fluorescent dye, carboxyfluorescein succinimidyl ester (CFSE). On a 96-well plate, 2.5×10^4 CD8^+ T cells and 5×10^4 antigen-presenting cells were plated in each well, and the cell growth was quantitatively evaluated using a flow cytometer on Day 4.5 after the plating. The wells were divided into three groups. In Group 1, 1 μg/mL anti-CD3 antibody was added to stimulate the growth. In Group 2, 1 μg/mL anti-CD3 antibody as well as 2.5×10^4 CD4^+CD25^+ cells were added. In Group 3, no anti-CD3 antibody was added.
One round of cell division of T cells stained with a fluorescent dye results in a decrease in the fluorescence intensity to half. Another division results in a decrease in the fluorescent intensity to one fourth of the original intensity. […]

[5] = system: chemokine/cytokine-associated genes; assay: Gene expression analysis of tissue in vicinity of embedded SEK-1005-containing agarose rod; assay type: in vivo, rat; conditions: Day 7 after embedding, versus SEK-1005-free agarose rod group
Source text: On Day 7 after embedding of the SEK-1005-containing agarose rod by the same operation as in Example 1, the tissue in the vicinity of the place where the rod was embedded was collected. The collected tissue was immediately impregnated with RNA later solution (Life Technologies) to inhibit RNA degradation. RNA in the tissue was extracted by the column method. The extracted RNA was amplified by the Express kit method (Affymetrix) and biotin-labeled, followed by hybridization with a Rat Genome 230 2.0 array (Affymetrix). Signals were read by a Hewlett-Packard GeneArray Scanner G2500A. By such a process, gene expression analysis was carried out for three tissue samples obtained from the vicinities of SEK-1005-containing agarose rods and three tissue samples obtained from the vicinities of control SEK-1005-free agarose rods. The obtained fluorescence intensities were standardized and normalized, and then subjected to statistical analysis. The standardized and normalized gene expression level was statistically compared between the SEK-1005-containing agarose rod group and the control SEK-1005-free agarose rod group. Genes showing increased expression in the SEK-1005-containing agarose rod group were plotted such that their values along the X-axis became positive. Log 2 conversion was carried out in terms of the X-axis. […]

[6] = Blood glucose level after transplantation of pancreatic islets into the site where the SEK-1005-containing agarose rod was embedded; assay type: in vivo; conditions: then removed, 1,500 F344 rat islets per cavity, STZ-diabetic ACI rats
Protocol: On the day when the SEK-1005-containing agarose rod was to be embedded, streptozotocin (STZ) (60 mg/kg body weight) was administered to ACI rats to induce diabetes. Under the skin of each of the left side and the right side of the back of each ACI rat, the agarose rod prepared in the same way as Example 1 was embedded. On Day 2 or Day 10 after the embedding, the agarose rod was removed, and 1,500 pieces of pancreatic islets separated from the pancreases of F344 rats were transplanted to each of the two dorsal subcutaneous cavities formed. After the transplantation, the blood glucose levels of the rats were measured. […] When SEK-1005-free agarose rod was embedded in the STZ-administered rats for 10 days and after removal of the agarose-rod, pancreatic islets were transplanted to the embedded site, the blood glucose levels of the diabetic rats were not decreased.

CC(C)CC1CCC(O)(C(C)(O)C(=O)NC2C(=O)N3NCCCC3C(=O)N(O)C(C)C(=O)N(C)C(Cc3ccccc3)C(=O)N3NCCCC3C(=O)NC(CO)C(=O)OC2C(C)C)OC1C (stereo not drawn) [SEK-1005, Ser, 3-hydroxy-N-[2-hydroxy-1-oxo-2-tetrahydro-2-hydroxy-6-methyl-5-(2-methylpropyl)-2H-pyran-2-yl-propyl]-Leu-Pip(hexahydro-3-pyridazinecarbonyl)-N-hydroxy-Ala-N-methyl-Phe-Pip-rho-lactone]
ratio of Foxp3+ cells among CD4+ cells ([1]; Day 2 after rod with 100 μg SEK-1005 embedded under the skin): 18.3%
ratio of Foxp3+ cells among CD4+ cells ([1]; Day 7 after rod with 100 μg SEK-1005 embedded under the skin): 20.8%
ratio of Foxp3+ cells among CD4+ cells ([1]; Day 10 after rod with 100 μg SEK-1005 embedded under the skin): 23.3%
ratio of Foxp3+ cells among CD4+ cells ([1]; Day 14 after rod with 100 μg SEK-1005 embedded under the skin): 27.3%
increase of ratio of regulatory T cells (CD4+Foxp3+ cells) ([1]; versus about 10% in normal subcutaneous tissues): 2- to 3 fold
ratio of cytotoxic T cells (CD8+ T cells) to CD4+ cells among CD3+ cells ([2]; Day 2 after SEK-1005-containing agarose rod embedded under the skin): 36.1%
ratio of cytotoxic T cells (CD8+ T cells) to CD4+ cells among CD3+ cells ([2]; Day 7 after SEK-1005-containing agarose rod embedded under the skin): 33.7%
ratio of cytotoxic T cells (CD8+ T cells) to CD4+ cells among CD3+ cells ([2]; Day 10 after SEK-1005-containing agarose rod embedded under the skin): 25.5%
ratio of cytotoxic T cells (CD8+ T cells) to CD4+ cells among CD3+ cells ([2]; Day 14 after SEK-1005-containing agarose rod embedded under the skin): 23.9%
TGF-β1 concentration in the exudate ([3]; Day 10 after the embedding): 2.0 ± 1.0 ng/mL
TGF-β1 concentration relative to SEK-1005-free agarose rod group ([3]; Day 10 after the embedding): about 3 times
TGF-β1 concentration in the exudate ([3]; until Day 7 after the rod was embedded): 0.7 ± 0.1 ng/mL
ratio of cells exhibiting decreased fluorescence intensity due to cell division [4]: 13.4%
expression of genes associated with migration/induction of regulatory T cells among chemokine/cytokine-associated genes [5]: significant increase
expression of genes not associated with migration/induction of regulatory T cells among chemokine/cytokine-associated genes [5]: significant decrease
blood glucose levels after transplantation of pancreatic islets ([6]; rod embedded for ten days): normalized
blood glucose levels after transplantation of pancreatic islets ([6]; rod embedded for two days): > 400 mg/dL
